The assay deals with proteasome. The experiment in a line: Incubation of TetR-EGFP-expressed cells with proteasome inhibitor, fluorescence by flow cytometer. Particulars: variant TetR-EGFP-expressed cells, 100 μg/ml, 12 hours (FIG. 1C).

Residues, ends and D or L forms follow the SMILES beside them. *: point of attachment. Cbz = O=C(OCc1ccccc1)*

Consider one compound from US20090130763A1, “Method of Controlling Degradation of Protein by Tetracycline Antibiotic” (priority 2005, published 2009).

Experimental: The cells were treated with trypsin and then recovered. Fluorescence-positive cell rates and the intensity of fluorescence per cell were analyzed by a flow cytometer (BD, FACSCalibur).
These cells were incubated for 12 hours in the presence of 100 μg/ml of proteasome inhibitor MG132.

As for `CC(C)C[C@@H](C=O)NC(=O)[C@H](CC(C)C)NC(=O)[C@H](CC(C)C)NC(=O)OCc1ccccc1` [MG132] (Cbz-Leu-Leu-Leu-aldehyde), the change in fluorescence result is recorded as “marked increase”.
